Assays:
[1] = test system: HeLa cells expressing mt-Keima and YFP-Parkin (HeLa MKYP); experiment: Human mt-Keima mitophagy assay; assay type: cell-based; details: 16 hrs with compound, then FCCP/oligomycin for 6 hours, FACS
Experimental: Briefly, HeLa cells expressing mt-Keima and YFP-Parkin (HeLa MKYP) were plated at 10,000 cells/well in 96 well plates along with compounds at various concentrations. Following 16 hrs of incubation, cells were treated with […] FCCP/oligomycin for 6 hours, then analyzed via FACS for the presence of mitochondria in lysosomes (as determined by an emissions spectrum shift from the pH-sensitive mt-Keima tag).

SKOV3 cells = experiment: In vitro mitosafety (glucose/galactose) assay; assay type: cell-based; details: highest mito-safe dose (gal/glc >0.80, IC20, SKOV3 cells, 20 hours) divided by mt-Keima EC50
Experimental: Briefly, SKOV3 cells (ATCC HTB-77) were plated in DMEM (Corning 10-013-CV) medium containing 25 mM glucose or DMEM with no glucose (Gibco 11966-025) supplemented with 10 mMV galactose at 9,000 cells/well in 96 well plates (Corning costar 3610). 24 hrs later, compounds, in DMSO, were added at various concentrations to a final 0.1% DMSO for all wells. […] After a 15 minute incubation cellular ATP levels were read out using a Promega GloMax® DiscoverMicroplate Reader.
The ratio of relative CellTiter-Glo values from cells grown in galactose to cells grown in glucose was determined (gal/glc ratio). The gal/glc ratio vs concentration is then graphed, and non-linear regression is used to find the highest concentration of MTK compound at which gal/glc >0.80 (the “highest mito-safe dose”, or IC20).

FC(F)OC1CN([C@H]2COc3ccccc3[C@@H]2Nc2ncnc3[nH]c(C4CC4)cc23)C1 (relative stereo) [EP-0041832, 6-Cyclopropyl-N-[Trans-3-[3-(Difluoromethoxy)Azetidin-1-Yl]Chroman-4-Yl]-7H-Pyrrolo[2,3-D]Pyrimidin-4-Amine]
EC50 ([1]; Homo sapiens, HeLa): 346 nM
Mito-Safety Index (highest safe dose/EC50) (SKOV3 cells): 72.23

FC(F)(F)C1CN([C@H]2COc3ccccc3[C@@H]2Nc2ncnc3[nH]c(C4CC4)cc23)CCO1 (single isomer, unassigned) [EP-0042928]
EC50 ([1]; Homo sapiens, HeLa): 170 nM
Mito-Safety Index (highest safe dose/EC50) (SKOV3 cells): 42.17

c1ccc2c(c1)OC[C@H](N1CCC3(CCCO3)C1)[C@H]2Nc1ncnc2[nH]c(C3CC3)cc12 (single isomer, unassigned) [EP-0042934]
EC50 [1]: 35 nM
Mito-Safety Index (highest safe dose/EC50) (SKOV3 cells): 55.78

c1ccc2c(c1)OC[C@H](N1CCC3(CCCO3)C1)[C@H]2Nc1ncnc2[nH]c(C3CC3)cc12 (single isomer, unassigned) [EP-0042935]
Mito-Safety Index (highest safe dose/EC50) (SKOV3 cells): 211.76

CC1(C#N)CCN([C@H]2COc3ccccc3[C@@H]2Nc2ncnc3[nH]c(C(F)(F)F)cc23)C1 (single isomer, unassigned) [EP-0043816]
EC50 ([1]; Homo sapiens, HeLa): 110 nM
Mito-Safety Index (highest safe dose/EC50) (SKOV3 cells): 75.4

OC1([C@H]2COc3ccccc3[C@@H]2Nc2ncnc3[nH]c(C4CC4)cc23)CCOCC1 [EP-0042202, 4-[(3R,4R)-4-[(6-Cyclopropyl-7H-Pyrrolo[2,3-D]Pyrimidin-4-Yl)Amino]Chroman-3-Yl]Tetrahydropyran-4-Ol]
EC50 ([1]; Homo sapiens, HeLa): 215 nM
Mito-Safety Index (highest safe dose/EC50) (SKOV3 cells): 116.5

OC1([C@H]2COc3ccccc3[C@@H]2Nc2ncnc3[nH]c(C(F)(F)F)cc23)CCOCC1 [EP-0042356, 4-[(3R,4R)-4-[[6-(Trifluoromethyl)-7H-Pyrrolo[2,3-D]Pyrimidin-4-Yl]Amino]Chroman-3-Yl]Tetrahydropyran-4-Ol]
EC50 ([1]; Homo sapiens, HeLa): 218 nM
Mito-Safety Index (highest safe dose/EC50) (SKOV3 cells): 114.63

F[C@@H]1CCN([C@H]2COc3ccccc3[C@@H]2Nc2ncnc3[nH]c(C4CC4)cc23)C1 [EP-0042534, 6-Cyclopropyl-N-((3R,4S)-3-((R)-3-Fluoropyrrolidin-1-Yl)Chroman-4-Yl)-7H-Pyrrolo[2,3-D]Pyrimidin-4-Amine]
EC50 ([1]; Homo sapiens, HeLa): 349 nM
Mito-Safety Index (highest safe dose/EC50) (SKOV3 cells): 71.21

c1ccc2c(c1)OC[C@H](N1CCOC3(CC3)C1)[C@H]2Nc1ncnc2[nH]c(C3CC3)cc12 [EP-0042535, N-((3R,4S)-3-(4-Oxa-7-Azaspiro[2.5]Octan-7-Yl)Chroman-4-Yl)-6-Cyclopropyl-7H-Pyrrolo[2,3-D]Pyrimidin-4-Amine]
EC50 ([1]; Homo sapiens, HeLa): 244 nM
Mito-Safety Index (highest safe dose/EC50) (SKOV3 cells): 102.55

F[C@H]1CCN([C@H]2COc3ccccc3[C@@H]2Nc2ncnc3[nH]c(C4CC4)cc23)C1 [EP-0042536, 6-Cyclopropyl-N-((3R,4S)-3-((S)-3-Fluoropyrrolidin-1-Yl)Chroman-4-Yl)-7H-Pyrrolo[2,3-D]Pyrimidin-4-Amine]
EC50 ([1]; Homo sapiens, HeLa): 154 nM
Mito-Safety Index (highest safe dose/EC50) (SKOV3 cells): 89.78

CO[C@H]1CCCN([C@H]2COc3ccccc3[C@@H]2Nc2ncnc3[nH]c(C4CC4)cc23)C1 [EP-0042537, 6-Cyclopropyl-N-((3R,4S)-3-((S)-3-Methoxypiperidin-1-Yl)Chroman-4-Yl)-7H-Pyrrolo[2,3-D]Pyrimidin-4-Amine]
EC50 ([1]; Homo sapiens, HeLa): 268 nM
Mito-Safety Index (highest safe dose/EC50) (SKOV3 cells): 37.03

c1ccc2c(c1)OC[C@H](N1CCCC1)[C@H]2Nc1ncnc2[nH]c(C3CC3)cc12 [EP-0042659, 6-Cyclopropyl-N-((3R,4S)-3-(Pyrrolidin-1-Yl)Chroman-4-Yl)-7H-Pyrrolo[2,3-D]Pyrimidin-4-Amine]
EC50 ([1]; Homo sapiens, HeLa): 251 nM
Mito-Safety Index (highest safe dose/EC50) (SKOV3 cells): 54.54

FC1(F)CCN([C@H]2COc3ccccc3[C@@H]2Nc2ncnc3[nH]c(C4CC4)cc23)C1 [EP-0042660, 6-Cyclopropyl-N-((3R,4S)-3-(3,3-Difluoropyrrolidin-1-Yl)Chroman-4-Yl)-7H-Pyrrolo[2,3-D]Pyrimidin-4-Amine]
EC50 ([1]; Homo sapiens, HeLa): 139 nM
Mito-Safety Index (highest safe dose/EC50) (SKOV3 cells): 179.63

N#C[C@H]1CCN([C@H]2COc3ccccc3[C@@H]2Nc2ncnc3[nH]c(C4CC4)cc23)C1 [EP-0042930]
EC50 ([1]; Homo sapiens, HeLa): 38 nM
Mito-Safety Index (highest safe dose/EC50) (SKOV3 cells): 105.8

FC(F)(F)c1cc2c(N[C@H]3c4ccccc4OC[C@@H]3N3CCOC4(CC4)C3)ncnc2[nH]1 [EP-0042970, N-((3R,4S)-3-(4-Oxa-7-Azaspiro[2.5]Octan-7-Yl)Chroman-4-Yl)-6-(Trifluoromethyl)-7H-Pyrrolo[2,3-D]Pyrimidin-4-Amine]
EC50 ([1]; Homo sapiens, HeLa): 404 nM
Mito-Safety Index (highest safe dose/EC50) (SKOV3 cells): 61.94

F[C@H]1CCN([C@H]2COc3ccccc3[C@@H]2Nc2ncnc3[nH]c(C(F)(F)F)cc23)C1 [EP-0042972, N-((3R,4S)-3-((S)-3-Fluoropyrrolidin-1-Yl)Chroman-4-Yl)-6-(Trifluoromethyl)-7H-Pyrrolo[2,3-D]Pyrimidin-4-Amine]
EC50 ([1]; Homo sapiens, HeLa): 387 nM
Mito-Safety Index (highest safe dose/EC50) (SKOV3 cells): 62.14

FC(F)(F)c1cc2c(N[C@H]3c4ccccc4OC[C@@H]3C3(F)CCOCC3)ncnc2[nH]1 [EP-0043236, N-[(3R,4R)-3-(4-Fluorotetrahydropyran-4-Yl)Chroman-4-Yl]-6-(Trifluoromethyl)-7H-Pyrrolo[2,3-D]Pyrimidin-4-Amine]
EC50 ([1]; Homo sapiens, HeLa): 415 nM
Mito-Safety Index (highest safe dose/EC50) (SKOV3 cells): 59.18

N#C[C@H]1CCN([C@H]2COc3ccccc3[C@@H]2Nc2ncnc3[nH]c(C(F)(F)F)cc23)C1 [EP-0043263, (S)-1-((3R,4S)-4-((6-(Trifluoromethyl)-7H-Pyrrolo[2,3-D]Pyrimidin-4-Yl)Amino)Chroman-3-Yl)Pyrrolidine-3-Carbonitrile]
EC50 ([1]; Homo sapiens, HeLa): 97 nM
Mito-Safety Index (highest safe dose/EC50) (SKOV3 cells): 120.52

N#C[C@@H]1CCN([C@H]2COc3ccccc3[C@@H]2Nc2ncnc3[nH]c(C(F)(F)F)cc23)C1 [EP-0043264, (R)-1-((3R,4S)-4-((6-(Trifluoromethyl)-7H-Pyrrolo[2,3-D]Pyrimidin-4-Yl)Amino)Chroman-3-Yl)Pyrrolidine-3-Carbonitrile]
EC50 ([1]; Homo sapiens, HeLa): 129 nM
Mito-Safety Index (highest safe dose/EC50) (SKOV3 cells): 91.68

N#C[C@H]1CCN([C@H]2COc3ccccc3[C@@H]2Nc2ncnc3[nH]c(C4CC4)cc23)C1 [EP-0043271, (S)-1-((3R,4S)-4-((6-Cyclopropyl-7H-Pyrrolo[2,3-D]Pyrimidin-4-Yl)Amino)Chroman-3-Yl)Pyrrolidine-3-Carbonitrile]
EC50 [1]: 65 nM
Mito-Safety Index (highest safe dose/EC50) (SKOV3 cells): 74.90

CO[C@H]1CCCN([C@H]2COc3ccccc3[C@@H]2Nc2ncnc3[nH]c(C(F)(F)F)cc23)C1 [EP-0043439, N-((3R,4S)-3-((S)-3-Methoxypiperidin-1-Yl)Chroman-4-Yl)-6-(Trifluoromethyl)-7H-Pyrrolo[2,3-D]Pyrimidin-4-Amine]
EC50 ([1]; Homo sapiens, HeLa): 448 nM
Mito-Safety Index (highest safe dose/EC50) (SKOV3 cells): 48.93
